Reference: patent US10577363B2, “Substituted piperidine compounds” (EPIZYME, INC., priority 2014, dated 2020)

What was measured:
SMYD3 [1] = target: T1, SMYD3 (Homo sapiens (Human), UniProt Q9H7B4); assay: SMYD3 cell assay (Trimethyl-MEKK2 In-Cell Western in 293T/17 cells); format: cell-based; details: read-out: SMYD3 Cell IC50*
How it was run: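 In-Cell Western readout: methanol-fixed cells stained for trimethyl-MEKK2 and flag tag, ratio per well normalized to DMSO and background controls.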

SMYD3 [2] = target: T1, SMYD3; assay: SMYD3 biochemical assay (SPA, 3H-SAM methylation of MEKK2 protein substrate); details: read-out: SMYD3 Biochem IC50*
How it was run: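 Methylation of N-terminally GST-tagged MEKK2 by untagged full-length human SMYD3, using 3H-SAM, in pH 8.0 Tris buffer with TCEP, BSG and Tween 20; enzyme and compound sat 30 min at room temperature before substrate addition. Stopped with 100 uM (final) cold SAM; incorporation read by scintillation proximity as dpm/cpm.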

T1 sequence (Q9H7B4 whole entry): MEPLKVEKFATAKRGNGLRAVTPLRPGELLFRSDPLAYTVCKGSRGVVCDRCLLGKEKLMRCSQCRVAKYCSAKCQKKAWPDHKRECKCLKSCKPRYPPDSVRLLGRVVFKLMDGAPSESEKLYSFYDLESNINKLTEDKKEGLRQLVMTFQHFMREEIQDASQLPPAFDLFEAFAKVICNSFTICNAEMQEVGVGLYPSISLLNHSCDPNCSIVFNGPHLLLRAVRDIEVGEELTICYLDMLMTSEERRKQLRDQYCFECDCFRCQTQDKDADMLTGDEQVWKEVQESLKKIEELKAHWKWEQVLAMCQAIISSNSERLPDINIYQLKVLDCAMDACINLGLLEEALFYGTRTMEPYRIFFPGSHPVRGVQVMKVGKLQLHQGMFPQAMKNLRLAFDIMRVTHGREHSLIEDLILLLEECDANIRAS

SMILES	IC50 (SMYD3 [1]) [nM]	IC50 (SMYD3 [2]) [nM]
COCCN[C@H]1CC[C@H](S(=O)(=O)N2[C@@H]3CC[C@H]2C[C@@H](NC(=O)c2cc(C4CC4)on2)C3)CC1 [compound 825, 5-cyclopropyl-N-((1R,3R,5S)-8-(((1r,4R)-4-((2-methoxyemyl)amino)cyclohexyl)sulfonyl)-8-azabicyclo[3.2.1]octan-3-yl)isoxazole-3-carboxamide]	55.3	3.91
COCCN[C@H]1CC[C@@H](S(=O)(=O)N2[C@@H]3CC[C@H]2C[C@@H](NC(=O)c2cc(C4CC4)on2)C3)CC1 [compound 826, 5-cyclopropyl-N-((1R,3R,5S)-8-(((1s,4S)-4-((2-methoxyethyl)amino)cyclohexyl)sulfonyl)-8-azabicyclo[3.2.1]octan-3-yl)isoxazole-3-carboxamide]	58.4	3.92
C[C@H]1C[C@@H](NC(=O)c2cc(C3CC3)on2)CCN1S(=O)(=O)CC1CCCC(N)C1 (stereo partly drawn) [compound 827, N-((2S,4S)-1-(((3-aminocyclohexyl)methyl)sulfonyl)-2-methylpiperidin-4-yl)-5-cyclopropylisoxazole-3-carboxamide]	72.7	4
C[C@H]1C[C@@H](NC(=O)c2cc(C3CC3)on2)CCN1S(=O)(=O)N1C2CNCC1C2 [compound 828, N-((2S,4S)-1-((3,6-diazabicyclo[3.1.1]heptan-6-yl)sulfonyl)-2-methylpiperidin-4-yl)-5-cyclopropylisoxazole-3-carboxamide]	150	4.18
CCNC1CCN(S(=O)(=O)N2CC[C@H](NC(=O)c3cc(C4CC4)on3)C[C@@H]2C)CC1 [compound 829, 5-cyclopropyl-N-((2S,4S)-1-((4-(ethylamino)piperidin-1-yl)sulfonyl)-2-methylpiperidin-4-yl)isoxazole-3-carboxamide]	70.2	4.3
NCC1CCN(S(=O)(=O)N2[C@@H]3CC[C@H]2C[C@@H](NC(=O)c2cc(C4CC4)on2)C3)CC1 [compound 830, N-((1R,3r,5S)-8-((4-(aminomethyl)piperidin-1-yl)sulfonyl)-8-azabicyclo[3.2.1]octan-3-yl)-5-cyclopropylisoxazole-3-carboxamide]	1550	4.34
CC1CN(S(=O)(=O)N2[C@@H]3CC[C@H]2C[C@@H](NC(=O)c2cc(C4CC4)on2)C3)CCC1N (stereo partly drawn) [compound 831, N-((1R,3r,5S)-8-((4-amino-3-methylpiperidin-1-yl)sulfonyl)-8-azabicyclo[3.2.1]octan-3-yl)-5-cyclopropylisoxazole-3-carboxamide]	85.1	4.36
O=C(N[C@H]1C[C@H]2CC[C@@H](C1)N2S(=O)(=O)N1C2CNCC1C2)c1cc(C2CC2)on1 [compound 832, N-((1R,3r,5S)-8-((3,6-diazabicyclo[3.1.1]heptan-6-yl)sulfonyl)-8-azabicyclo[3.2.1]octan-3-yl)-5-cyclopropylisoxazole-3-carboxamide]	134	4.38
CCc1cc(C(=O)N[C@H]2C[C@H]3CC[C@@H](C2)N3S(=O)(=O)[C@H]2CC[C@@H](NCCO)CC2)no1 [compound 833, 5-ethyl-N-((1R,3R,5S)-8-(((1s,4S)-4-((2-hydroxyethyl)amino)cyclohexyl)sulfonyl)-8-azabicyclo[3.2.1]octan-3-yl)isoxazole-3-carboxamide]	72.2	4.47
CN(CCCO)C1CCN(S(=O)(=O)N2[C@@H]3CC[C@H]2C[C@@H](NC(=O)c2cc(C4CC4)on2)C3)CC1 [compound 834, 5-cyclopropyl-N-((1R,3r,5S)-8-((4-((3-hydroxypropyl)(methyl)amino)piperidin-1-yl)sulfonyl)-8-azabicyclo[3.2.1]octan-3-yl)isoxazole-3-carboxamide]	48.7	4.57
O=C(N[C@H]1C[C@H]2CC[C@@H](C1)N2S(=O)(=O)N1CCC2(CCCN2)CC1)c1cc(C2CC2)on1 [compound 835, N-((1R,3r,5S)-8-((1,8-diazaspiro[4.5]decan-8-yl)sulfonyl)-8-azabicyclo[3.2.1]octan-3-yl)-5-cyclopropylisoxazole-3-carboxamide]	118	4.63
C[C@H]1C[C@@H](NC(=O)c2cc(C3CC3)on2)CCN1S(=O)(=O)C[C@H]1CCC[C@H](N)C1 [compound 836, N-((2S,4S)-1-((((1S,3S)-3-aminocyclohexyl)methyl)sulfonyl)-2-methylpiperidin-4-yl)-5-cyclopropylisoxazole-3-carboxamide]	89	4.64
C[C@H]1CN(S(=O)(=O)[C@H]2CC[C@H](N(C)C)CC2)CC[C@H]1NC(=O)c1cc(C2CC2)on1 [compound 837, 5-cyclopropyl-N-((3S,4R)-1-(((1r,4S)-4-(dimethylamino)cyclohexyl)sulfonyl)-3-methylpiperidin-4-yl)isoxazole-3-carboxamide]	84.4	4.82
CN(CCCC(F)(F)F)C1CCN(S(=O)(=O)N2[C@@H]3CC[C@H]2C[C@@H](NC(=O)c2cc(C4CC4)on2)C3)CC1 [compound 838, 5-cyclopropyl-N-((1R,3r,5S)-8-((4-(methyl(4,4,4-trifluorobutyl)amino)piperidin-1-yl)sulfonyl)-8-azabicyclo[3.2.1]octan-3-yl)isoxazole-3-carboxamide]	52.4	4.9
C[C@H]1C[C@@H](NC(=O)c2cc(C3CC3)on2)CCN1S(=O)(=O)N1CCC(N(C)Cc2ccccc2)CC1 [compound 839, N-((2S,4S)-1-((4-(benzyl(methyl)amino)piperidin-1-yl)sulfonyl)-2-methylpiperidin-4-yl)-5-cyclopropylisoxazole-3-carboxamide]	154	4.97
O=C(N[C@H]1C[C@H]2CC[C@@H](C1)N2S(=O)(=O)N1CC2CC1CN2)c1cc(C2CC2)on1 [compound 840, N-((1R,3r,5S)-8-((2,5-diazabicyclo[2.2.1]heptan-2-yl)sulfonyl)-8-azabicyclo[3.2.1]octan-3-yl)-5-cyclopropylisoxazole-3-carboxamide]	56	5.01
C[C@H]1C[C@@H](NC(=O)c2cc(C3CC3)on2)CCN1S(=O)(=O)CC[C@@H]1CCNC1 [compound 841, 5-cyclopropyl-N-((2S,4S)-2-methyl-1-((2-((S)-pyrrolidin-3-yl)ethyl)sulfonyl)piperidin-4-yl)isoxazole-3-carboxamide]	124	5.05
C[C@H](C1CCNCC1)S(=O)(=O)N1[C@@H]2CC[C@H]1C[C@@H](NC(=O)c1cc(C3CC3)on1)C2 [compound 842, 5-cyclopropyl-N-((1R,3R,5S)-8-(((R)-1-(piperidin-4-yl)ethyl)sulfonyl)-8-azabicyclo[3.2.1]octan-3-yl)isoxazole-3-carboxamide]	29	5.1
CC(C)CNC1CCN(S(=O)(=O)N2CC[C@H](NC(=O)c3cc(C4CC4)on3)C[C@@H]2C)CC1 [compound 843, 5-cyclopropyl-N-((2S,4S)-1-((4-(isobutylamino)piperidin-1-yl)sulfonyl)-2-methylpiperidin-4-yl)isoxazole-3-carboxamide]	77.7	5.11
CN(CCc1ccccc1)C1CCN(S(=O)(=O)N2[C@@H]3CC[C@H]2C[C@@H](NC(=O)c2cc(C4CC4)on2)C3)CC1 [compound 844, 5-cyclopropyl-N-((1R,3r,5S)-8-((4-(methyl(phenethyl)amino)piperidin-1-yl)sulfonyl)-8-azabicyclo[3.2.1]octan-3-yl)isoxazole-3-carboxamide]	305	5.28
O=C(N[C@H]1C[C@H]2CC[C@@H](C1)N2S(=O)(=O)N1CCC(NCCCO)CC1)c1cc(C2CC2)on1 [compound 845, 5-cyclopropyl-N-((1R,3r,5S)-8-((4-((3-hydroxypropyl)amino)piperidin-1-yl)sulfonyl)-8-azabicyclo[3.2.1]octan-3-yl)isoxazole-3-carboxamide]	86.3	5.3
CC(C)CCN(C)C1CCN(S(=O)(=O)N2[C@@H]3CC[C@H]2C[C@@H](NC(=O)c2cc(C4CC4)on2)C3)CC1 [compound 846, 5-cyclopropyl-N-((1R,3r,5S)-8-((4-(isopentyl(methyl)amino)piperidin-1-yl)sulfonyl)-8-azabicyclo[3.2.1]octan-3-yl)isoxazole-3-carboxamide]	80.2	5.36
C[C@H]1C[C@@H](NC(=O)c2cc(C3CC3)on2)CCN1S(=O)(=O)N1CCC(N2CCCC2)CC1 [compound 847, 5-cyclopropyl-N-((2S,4S)-2-methyl-1-((4-(pyrrolidin-1-yl)piperidin-1-yl)sulfonyl)piperidin-4-yl)isoxazole-3-carboxamide]	75.8	5.53
O=C(N[C@H]1C[C@H]2CC[C@@H](C1)N2S(=O)(=O)N1CCC(NCc2ccc(F)cc2)CC1)c1cc(C2CC2)on1 [compound 848, 5-cyclopropyl-N-((1R,3r,5S)-8-((4-((4-fluorobenzyl)amino)piperidin-1-yl)sulfonyl)-8-azabicyclo[3.2.1]octan-3-yl)isoxazole-3-carboxamide]	153	5.73
O=C(N[C@H]1C[C@H]2CC[C@@H](C1)N2S(=O)(=O)N1CCC2(CCN2)CC1)c1cc(C2CC2)on1 [compound 849, N-((1R,3r,5S)-8-((1,7-diazaspiro[3.5]nonan-7-yl)sulfonyl)-8-azabicyclo[3.2.1]octan-3-yl)-5-cyclopropylisoxazole-3-carboxamide]	62	5.95
O=C(N[C@H]1C[C@H]2CC[C@@H](C1)N2S(=O)(=O)N1CC2CCC(C1)N2CCCO)c1cc(C2CC2)on1 [compound 850, 5-cyclopropyl-N-((1R,3r,5S)-8-((8-(3-hydroxypropyl)-3,8-diazabicyclo[3.2.1]octan-3-yl)sulfonyl)-8-azabicyclo[3.2.1]octan-3-yl)isoxazole-3-carboxamide]	58.8	6.21
